# Assay results published in patent US10287251B2, “Pyrazole derivative or pharmaceutically acceptable salt thereof” (KISSEI PHARMACEUTICAL CO., LTD., priority 2015, dated 2019).
# Biological target: T1, TRPM8 (Rattus norvegicus, UniProt Q8R455)
# T1 construct: from tissue; host or cells: whole animal, female SD rats (in vivo)
# Test: Confirmation test of inhibitory effects on icilin-induced wet-dog shakes
# Assay type: in vivo
# Settings: female SD rats, oral dose 1 mg/kg, icilin 1 mg/kg i.p. 1 hour after dosing, shakes counted for 5 minutes
# Description: Further, TRPM8 inhibitory activity can be evaluated by the efficacy inhibiting the wet-dog shake action which is induced by the administration of Icilin, TRPM8 agonist. Furthermore, an effect on overactive bladder (OAB) can be evaluated by an elongation of micturition interval against overactive bladder induced by acetic acid in accordance with a similar method described in J. Urol., 2001, 166, 1142.
# Confirmation Test of Inhibitory Effects on Icilin-induced Wet-dog Shakes
# Test compounds were dissolved in dimethylacetamide (wako), and 0.5% methylcellulose solution (wako) was added to make the solution or suspension containing 5% of dimethylacetatnide. At a dose of 0.3 to 10 mg/kg/5mL of test compounds were orally administered to female SD rats. After 1 hour, wet-dog shakes were induced by the intraperitoneal injection of icilin (1 mg/kg) which was dissolved in polyethylene glycol 400 (wako). From 5 minutes after the administration of icilin, wet-dog shakes were counted for 5 minutes. For control example, vehicle (a mixture of dimethylacetamide (wako): 0.5% methylcellulose (wako)=5:95) was administrated similarly, and the number of wet-dog shakes was counted in the same manner. A percent inhibition of wet-dog shakes by test compound was calculated from the following formula: [1-(test compound wet-dog shake count/vehicle wet-dog shake count)]×100.
# T1 sequence (Q8R455 whole entry): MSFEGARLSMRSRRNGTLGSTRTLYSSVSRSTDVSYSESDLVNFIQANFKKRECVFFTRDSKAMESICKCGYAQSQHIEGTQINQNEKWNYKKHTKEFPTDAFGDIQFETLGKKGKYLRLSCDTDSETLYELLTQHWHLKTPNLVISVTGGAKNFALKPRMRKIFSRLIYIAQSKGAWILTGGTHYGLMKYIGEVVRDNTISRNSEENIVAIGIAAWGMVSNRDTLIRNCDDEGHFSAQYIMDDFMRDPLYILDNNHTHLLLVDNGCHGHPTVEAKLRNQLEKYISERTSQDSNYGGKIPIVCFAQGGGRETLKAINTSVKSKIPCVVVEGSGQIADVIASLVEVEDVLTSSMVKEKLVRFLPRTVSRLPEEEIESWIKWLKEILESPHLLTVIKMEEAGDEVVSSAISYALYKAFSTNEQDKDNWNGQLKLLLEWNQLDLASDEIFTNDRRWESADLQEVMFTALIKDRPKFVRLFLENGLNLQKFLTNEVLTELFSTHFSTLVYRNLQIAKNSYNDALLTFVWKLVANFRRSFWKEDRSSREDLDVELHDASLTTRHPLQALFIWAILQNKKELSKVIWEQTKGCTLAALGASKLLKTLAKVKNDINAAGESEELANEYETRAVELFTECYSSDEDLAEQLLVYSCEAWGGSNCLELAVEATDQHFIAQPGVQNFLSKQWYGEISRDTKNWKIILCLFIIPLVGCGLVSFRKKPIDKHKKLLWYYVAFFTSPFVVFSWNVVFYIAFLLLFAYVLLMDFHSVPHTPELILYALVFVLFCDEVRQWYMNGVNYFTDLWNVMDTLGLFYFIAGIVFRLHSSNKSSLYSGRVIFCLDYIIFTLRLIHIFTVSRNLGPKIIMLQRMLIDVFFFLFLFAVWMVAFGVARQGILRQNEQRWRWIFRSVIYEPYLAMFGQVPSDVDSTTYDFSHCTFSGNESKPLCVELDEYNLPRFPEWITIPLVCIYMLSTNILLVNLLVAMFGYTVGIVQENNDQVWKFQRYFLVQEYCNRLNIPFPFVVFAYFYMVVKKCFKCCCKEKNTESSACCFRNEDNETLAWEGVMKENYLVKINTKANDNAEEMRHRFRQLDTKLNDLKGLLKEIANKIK
row,Compound,% inhibition of Wet-Dog Shake
1,O=C(N[C@@H](CO)Cc1ncccc1F)c1cccc(F)c1-c1cc(-c2ccc(F)cc2)[nH]n1 [Example 1-167],65%
2,COC[C@@H](O)[C@@H](Cc1ccccn1)NC(=O)c1cccc(F)c1-c1n[nH]c(-c2ccc(F)cc2)c1F [Example 1-213],68%

# Results, then the molecule that gave them:
row,% inhibition of Wet-Dog Shake,Compound
1,50%,O=C(N[C@@H](CO)Cc1ccccn1)c1ccccc1-c1n[nH]c(-c2ccc(F)cc2)c1F [Example 1-97]
2,38%,CC(CO)[C@@H](Cc1ccccn1)NC(=O)c1cccc(F)c1-c1cc(-c2ccc(F)cc2)[nH]n1 (stereo partly shown) [Example 1-164]
3,85%,O=C(N[C@@H](CCO)Cc1ccccn1)c1ccccc1-c1n[nH]c(-c2ccc(F)cc2)c1F [Example 1-173]

# Same assay, conditions: female SD rats, oral dose 3 mg/kg, icilin 1 mg/kg i.p. 1 hour after dosing, shakes counted for 5 minutes
row,Compound,% inhibition of Wet-Dog Shake
1,"O=C(N[C@@H](CO)C(O)c1ccccn1)c1cccc(F)c1-c1cc(-c2ccc(F)cc2)[nH]n1 (single isomer, unassigned) [Example 54-1]",70%
2,"O=C(N[C@@H](CO)C(O)c1ccccn1)c1cccc(F)c1-c1cc(-c2ccc(F)cc2)[nH]n1 (single isomer, unassigned) [Example 54-2]",48%
3,O=C(N[C@@H](CO)Cc1ccccc1)c1ccccc1-c1cc(-c2ccc(F)c(F)c2)[nH]n1 [Example 1-62],55%
4,O=C(N[C@@H](CO)Cc1ccccc1)c1cccc(F)c1-c1cc(-c2ccccc2)[nH]n1 [Example 1-68],41%
5,O=C(N[C@@H](CO)Cc1ccccc1)c1cccc(F)c1-c1cc(-c2ccc(F)cc2)[nH]n1 [Example 1-86],76%
6,C[C@H](O)[C@@H](Cc1ccccc1)NC(=O)c1cccc(F)c1-c1cc(-c2ccc(F)cc2)[nH]n1 [Example 1-104],60%
7,O=C(N[C@@H](CO)Cc1ccccn1)c1cccc(F)c1-c1n[nH]c(-c2ccc(F)cc2)c1F [Example 1-105],90%
8,COc1cccnc1C[C@H](CCO)NC(=O)c1cccc(F)c1-c1cc(-c2ccc(F)cc2)[nH]n1 [Example 1-108],61%
9,CC(c1ccccn1)[C@H](CCO)NC(=O)c1cccc(F)c1-c1cc(-c2ccc(F)cc2)[nH]n1 (stereo partly shown) [Example 1-138],100%
10,O=C(N[C@@H](CCO)Cc1ccccn1)c1cccc(F)c1-c1n[nH]c(-c2ccc(Cl)cc2)c1F [Example 1-154],75%
11,O=C(N[C@H](Cc1ccccn1)[C@H](O)CO)c1cccc(F)c1-c1n[nH]c(-c2ccc(F)cc2)c1F [Example 1-156],99%
12,CC(CO)[C@@H](Cc1ccccn1)NC(=O)c1cccc(F)c1-c1cc(-c2ccc(Cl)cc2)[nH]n1 (stereo partly shown) [Example 1-162],48%
13,O=C(N[C@@H](CO)Cc1ncccn1)c1cccc(F)c1-c1cc(-c2ccc(F)cc2)[nH]n1 [Example 1-174],60%
14,O=C(N[C@@H](CO)Cc1nccs1)c1cccc(F)c1-c1cc(-c2ccc(F)cc2)[nH]n1 [Example 1-177],59%
15,O=C(N[C@@H](CO)Cc1cscn1)c1cccc(F)c1-c1cc(-c2ccc(F)cc2)[nH]n1 [Example 1-182],37%
16,Cn1ccnc1C[C@H](CO)NC(=O)c1cccc(F)c1-c1cc(-c2ccc(F)cc2)[nH]n1 [Example 1-183],36%
17,O=C(NCC(O)c1ccccn1)c1cccc(F)c1-c1cc(-c2ccc(F)cc2)[nH]n1 (stereo not shown) [Example 1-194],60%
18,COc1cccnc1C[C@H](CO)NC(=O)c1cccc(F)c1-c1cc(-c2ccc(F)cc2)[nH]n1 [Example 1-196],63%
19,O=C(N[C@@H](CO)Cc1ncccc1C(F)(F)F)c1cccc(F)c1-c1cc(-c2ccc(F)cc2)[nH]n1 [Example 1-197],44%
20,CC(c1ccccn1)[C@H](CO)NC(=O)c1cccc(F)c1-c1cc(-c2ccc(F)cc2)[nH]n1 (stereo partly shown) [Example 1-200],91%
21,O=C(N[C@@H](CO)C(O)c1ccccn1)c1ccccc1-c1n[nH]c(-c2ccc(F)cc2)c1F (stereo partly shown) [Example 1-205],70%
22,O=C(N[C@@H](CCO)C(O)c1ccccn1)c1ccccc1-c1n[nH]c(-c2ccc(F)cc2)c1F (stereo partly shown) [Example 1-206],55%
23,O=C(N[C@@H](CO)C(O)c1ccccn1)c1cccc(Cl)c1-c1cc(-c2ccc(F)cc2)[nH]n1 (stereo partly shown) [Example 1-210],47%
24,C[C@](O)(CO)[C@@H](Cc1ccccn1)NC(=O)c1cccc(F)c1-c1cc(-c2ccc(Cl)cc2)[nH]n1 [Example 1-219],45%

# Further lines, results first:
row,% inhibition of Wet-Dog Shake,Compound
1,66%,O=C(N[C@@H](CO)Cc1ccccn1)c1ccccc1-c1cc(-c2ccc(F)c(F)c2)[nH]n1 [Example 1-29]
2,46%,O=C(N[C@@H](CO)Cc1ccccn1)c1ccccc1-c1cc(-c2ccc(Cl)cc2)[nH]n1 [Example 1-59]
3,69%,O=C(N[C@@H](CO)Cc1ccccn1)c1cccc(OC(F)(F)F)c1-c1cc(-c2ccc(F)cc2)[nH]n1 [Example 1-64]
4,45%,O=C(N[C@@H](CO)Cc1ccccn1)c1cccc(Cl)c1-c1cc(-c2ccc(F)cc2)[nH]n1 [Example 1-103]
5,98%,CC(O)[C@@H](Cc1ccccn1)NC(=O)c1cccc(F)c1-c1cc(-c2ccc(F)cc2)[nH]n1 (stereo partly shown) [Example 1-113]
6,46%,Cc1cccnc1C[C@H](CCO)NC(=O)c1cccc(F)c1-c1cc(-c2ccc(F)cc2)[nH]n1 [Example 1-117]
7,42%,CC(O)[C@@H](Cc1ccccn1)NC(=O)c1cccc(F)c1-c1cc(-c2ccc(F)cc2)[nH]n1 (stereo partly shown) [Example 1-124]
8,92%,C[C@H](O)C[C@@H](Cc1ccccn1)NC(=O)c1cccc(F)c1-c1cc(-c2ccc(F)cc2)[nH]n1 [Example 1-130]
9,94%,O=C(N[C@@H](CCO)Cc1ccccn1)c1cccc(F)c1-c1cc(-c2ccc(Cl)cc2)[nH]n1 [Example 1-131]
10,49%,O=C(N[C@@H](CCO)Cc1ccccn1)c1cccc(OC(F)(F)F)c1-c1cc(-c2ccc(F)cc2)[nH]n1 [Example 1-134]
11,84%,O=C(N[C@@H](CO)Cc1ccccn1)c1cccc(F)c1-c1cc(-c2ccc(Cl)cc2)[nH]n1 [Example 1-137]
12,34%,O=C(N[C@H](Cc1ccccn1)[C@H](O)CO)c1cccc(Cl)c1-c1cc(-c2ccc(F)cc2)[nH]n1 [Example 1-169]
13,56%,O=C(N[C@H](Cc1ccccn1)[C@H](O)CO)c1ccccc1-c1cc(-c2ccc(F)cc2)[nH]n1 [Example 1-185]
14,31%,O=C(N[C@@H](CCO)Cc1ncccn1)c1cccc(F)c1-c1cc(-c2ccc(F)cc2)[nH]n1 [Example 1-191]
15,100%,O=C(N[C@@H](CCO)Cc1ccccn1)c1ccccc1-c1cc(-c2ccc(F)cc2)[nH]n1 [Example 1-208]
16,75%,C[C@](O)(CO)[C@@H](Cc1ccccn1)NC(=O)c1cccc(F)c1-c1cc(-c2ccc(F)cc2)[nH]n1 [Example 1-217]
17,40%,C[C@](O)(CO)[C@@H](Cc1ccccn1)NC(=O)c1cccc(Cl)c1-c1cc(-c2ccc(F)cc2)[nH]n1 [Example 1-218]
18,100%,O=C(N[C@@H](CCO)Cc1ccccn1)c1ccccc1-c1n[nH]c(-c2ccc(Cl)cc2)c1F [Example 1-223]
19,82%,C[C@@](O)(CO)[C@@H](Cc1ccccn1)NC(=O)c1cccc(F)c1-c1cc(-c2ccc(F)cc2)[nH]n1 [Example 1-224]
20,37%,C[C@@](O)(CO)[C@@H](Cc1ccccn1)NC(=O)c1cccc(Cl)c1-c1cc(-c2ccc(F)cc2)[nH]n1 [Example 1-225]

# Same assay, conditions: female SD rats, oral dose 10 mg/kg, icilin 1 mg/kg i.p. 1 hour after dosing, shakes counted for 5 minutes
row,Compound,% inhibition of Wet-Dog Shake
1,O=C(NCCc1ccccn1)c1ccccc1-c1cc(-c2ccccc2)[nH]n1 [Example 1-3],66%
2,NC(=O)[C@@H](Cc1ccccn1)NC(=O)c1ccccc1-c1cc(-c2ccccc2)[nH]n1 [Example 1-15],54%
3,NC(=O)C[C@@H](Cc1ccccc1)NC(=O)c1cccc(F)c1-c1cc(-c2ccc(F)cc2)[nH]n1 [Example 1-128],59%

# Next, values leading:
row,% inhibition of Wet-Dog Shake,Compound
1,68%,O=C(N[C@@H](CO)Cc1ccccn1)c1ccccc1-c1cc(-c2ccccc2)[nH]n1 [Example 1-27]
2,93%,O=C(N[C@@H](CO)Cc1ccccn1)c1cccc(F)c1-c1cc(-c2ccccc2)[nH]n1 [Example 1-69]
3,72%,O=C(NC(CCO)Cc1ccccc1)c1ccccc1-c1cc(-c2ccc(F)cc2)[nH]n1 (stereo not shown) [Example 1-76]
4,59%,NC(=O)C[C@@H](Cc1ccccc1)NC(=O)c1ccccc1-c1cc(-c2ccc(F)cc2)[nH]n1 [Example 1-77]
5,86%,O=C(N[C@@H](CO)Cc1ccccn1)c1ccccc1-c1cc(-c2ccc(Cl)c(F)c2)[nH]n1 [Example 1-85]
6,100%,O=C(N[C@@H](CO)Cc1ccccn1)c1c(F)cccc1-c1cc(-c2ccc(F)cc2)[nH]n1 [Example 1-94]
